Values quoted from earlier work in EP1398318A1, “Process for conducting chemical reactions in a liquid phase in the presence of a catalyst and a 1,3-substituted imidazolium salt” (BASF AKTIENGESELLSCHAFT, priority 2002, dated 2004).

Molecular target: menschlichen Myeloperoxidase (Homo sapiens, UniProt P05164)
Settings: competitive with hydrogen peroxide at the active centre

Sequence of menschlichen Myeloperoxidase (P05164 279-745 limits assumed): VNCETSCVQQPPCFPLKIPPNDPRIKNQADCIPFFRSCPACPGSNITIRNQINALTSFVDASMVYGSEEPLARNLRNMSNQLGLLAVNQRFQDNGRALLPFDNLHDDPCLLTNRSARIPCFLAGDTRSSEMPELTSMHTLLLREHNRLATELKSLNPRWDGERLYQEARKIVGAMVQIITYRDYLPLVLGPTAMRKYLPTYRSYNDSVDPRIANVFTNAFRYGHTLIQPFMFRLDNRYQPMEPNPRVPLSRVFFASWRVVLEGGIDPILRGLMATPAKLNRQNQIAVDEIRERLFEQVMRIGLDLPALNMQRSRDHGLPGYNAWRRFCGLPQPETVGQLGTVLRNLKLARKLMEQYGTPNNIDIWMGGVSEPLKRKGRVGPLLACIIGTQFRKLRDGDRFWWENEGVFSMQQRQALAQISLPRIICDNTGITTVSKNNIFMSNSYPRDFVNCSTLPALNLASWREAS
Sequence of menschlichen Myeloperoxidase (P05164 165-278 limits assumed): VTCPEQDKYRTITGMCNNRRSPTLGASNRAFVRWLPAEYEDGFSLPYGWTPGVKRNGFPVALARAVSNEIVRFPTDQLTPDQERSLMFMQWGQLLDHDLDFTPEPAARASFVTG

## Cl [Chlorid]
  bindet kompetitiv zu Wasserstoffperoxid am aktiven Zentrum des Enzyms: inhibierend
